Measurements reported in patent publication US9801960B2, “Probe for a biological specimen and labelling method and screening method using the probe” (CANON KABUSHIKI KAISHA, priority 2008, dated 2017).

How the values were obtained:
[1] = Storage stability of staining compound solution in DMSO; type: physicochemical; settings: 10 ng/mL in DMSO, closed glass container, normal temperature, 1 month; rate of change of absorbance and fluorescence intensity
Protocol: A 10 ng/mL solution of each of the staining compounds of Labelled Examples 1 to 78 and Labelled Comparative Examples 1 and 2 in DMSO was prepared, charged into a well-closed container made of glass, and left to stand still at normal temperature for 1 month. The absorbance and the fluorescence intensity at the time of the start of a storage stability test were measured at a given wavelength, and their rates of change were examined (+++: rates of change of the absorbance and the fluorescence intensity are less than 5%, and thus, the storage stability is highly excellent; ++: rates of change of the absorbance and fluorescence intensity are 5 to 15%, and thus, the storage stability is excellent; and −: rates of change of the absorbance and fluorescence intensity are more than 15%, and thus, the storage stability is poor).

[2] = Excitation and fluorescence emission wavelength measurement; type: physicochemical; set-up: Stokes shift (λem − λex): unit not given here; settings: aqueous solution: 10 mg/mL solution in DMSO diluted 500-fold with purified water
Protocol: It should be noted that the excitation wavelength and the fluorescence emission wavelength of the staining compound were determined by measuring an aqueous solution, which had been obtained by diluting 500-fold a 10 mg/mL solution of the staining compound in DMSO with purified water, with a fluorescence spectrophotometer FL 4500 manufactured by Hitachi High-Technologies Corporation.

Zebrafish juveniles = assay: In vivo labelling of Zebrafish juveniles with probe for biological specimen; set-up: key to Staining property: +++: stained; −: no stained; key to Fluorescence sensitivity: +++: strongly observed; ++: moderately observed; +: weakly observed; −: no stained; settings: 1 hour; for Site(s) to be labelled: 10 ng/mL in water, stereoscopic microscope; for Fluorescence sensitivity / Staining property: 10 ng/mL; for Fluorescence sensitivity: fluorescence intensity visually evaluated; for Staining property: visually evaluated
Protocol: Five juveniles of Zebrafish were put into one well of a well plate together with rearing water. After rearing water had been discharged, 1 mL of distilled water was added to the well, and a solution of a staining compound (1) in DMSO was further added thereto so as to achieve a concentration of 10 ng/mL, followed by gentle stirring (pipetting). Further, Egg Water was prepared by dissolving artificial seawater SEALIFE (manufactured by Marinetech Co., Ltd.) in distilled water at a concentration of 60 mg/L. After the whole had been left to stand for 1 hour, distilled water in the well was discharged and replaced by 1 mL of fresh Egg Water. In addition, such an operation that Egg Water was discharged and replaced by 1 mL of fresh Egg Water was repeated twice. One of the juveniles was taken out from the well onto a dish, supplemented with 100 μL of a 3% methylcellulose aqueous solution to fix the movement of the juvenile, and photographed with a stereoscopic microscope (MZ10F: manufactured by Leica Microsystems K.K.).
The same operation as that in Example 1 was performed except that the staining compound (1) used in Example 1 was changed to any one of the staining compounds described in Table 1.
The same operation as that in Example 1 was performed except that the staining compound (1) used in Example 1 was changed to any one of indocyanine green (ICG) and fluorescein.
The staining property of each of the staining compounds of Labelled Examples 1 to 78 and Labelled Comparative Examples 1 and 2 was visually evaluated (+++: stained and −: no stained).
The fluorescence intensity of each of the staining compounds of Labelled Examples 1 to 78 and Labelled Comparative Examples 1 and 2 was visually evaluated (+++: strongly observed, ++: moderately observed, +: weakly observed, and −: no stained).

Compound | Storage stability [1] | Excitation wavelength λex [2] | Fluorescence emission wavelength λem [2] | Stokes shift (λem − λex) [2] | Site(s) to be labelled (Zebrafish juveniles) | Fluorescence sensitivity (Zebrafish juveniles) | Staining property (Zebrafish juveniles)
CCCCN1C(=O)/C(=c2\s/c(=C/c3ccc4c(c3)C3CCCC3N4c3ccccc3)c(=O)n2CC(=O)OCC)SC1=S (centres unmarked) [Dye 60] | +++ (rates of change of the absorbance and the fluorescence intensity are less than 5%, and thus, the storage stability is highly excellent) | 563 nm | 609 nm | 46 | gastrointestinal tract | ++ | +++
CCCCN1C(=O)/C(=c2\s/c(=C/c3ccc4c(c3)C3CCCC3N4c3ccc(OC)cc3)c(=O)n2CC(=O)OCC)SC1=S (centres unmarked) [Dye 62] | +++ (rates of change of the absorbance and the fluorescence intensity are less than 5%, and thus, the storage stability is highly excellent) | 450 nm | 527 nm | 77 | gastrointestinal tract | +++ | +++
O=C(O)Cn1c(=O)/c(=C\c2ccc3c(c2)C2CCCC2N3c2ccccc2)s/c1=C1/SC(=S)N(Cc2ccccc2)C1=O (centres unmarked) [Dye 66] | ++ (rates of change of the absorbance and fluorescence intensity are 5 to 15%, and thus, the storage stability is excellent) | 586 nm | 661 nm | 75 | blood vessel, nose, and gastrointestinal tract | ++ | +++
COc1ccc(N2c3ccc(/C=c4/s/c(=C5/SC(=S)N(Cc6ccccc6)C5=O)n(CC(=O)O)c4=O)cc3C3CCCC32)cc1 (centres unmarked) [Dye 67] | +++ (rates of change of the absorbance and the fluorescence intensity are less than 5%, and thus, the storage stability is highly excellent) | 568 nm | 712 nm | 144 | blood vessel | +++ | +++
CCN1C(=O)/C(=c2\s/c(=C/c3ccc4c(c3)C3CCCC3N4c3ccc(OC)cc3)c(=O)n2CC)SC1=S (centres unmarked) [Dye 68] | +++ (rates of change of the absorbance and the fluorescence intensity are less than 5%, and thus, the storage stability is highly excellent) | 602 nm | 667 nm | 65 | gastrointestinal tract | +++ | +++
C=CCN1C(=O)/C(=c2\s/c(=C/c3ccc4c(c3)C3CCCC3N4c3ccc(C=C(c4ccccc4)c4ccccc4)cc3)c(=O)n2CC(=O)OCC)SC1=S (centres unmarked) [Dye 69] | +++ (rates of change of the absorbance and the fluorescence intensity are less than 5%, and thus, the storage stability is highly excellent) | 600 nm | 656 nm | 56 | gastrointestinal tract | +++ | +++
COc1ccc(N2c3ccc(/C=C/c4sc5ccccc5[n+]4CCC(=O)O)cc3C3CCCC32)cc1 (centres unmarked) [Dye 72] | +++ (rates of change of the absorbance and the fluorescence intensity are less than 5%, and thus, the storage stability is highly excellent) | 583 nm | 668 nm | 85 | gallbladder and gastrointestinal tract | +++ | +++
O=C(O)CC[n+]1c(/C=C/c2ccc3c(c2)C2CCCC2N3c2ccc(C=C(c3ccccc3)c3ccccc3)cc2)sc2ccccc21 (centres unmarked) [Dye 73] | +++ (rates of change of the absorbance and the fluorescence intensity are less than 5%, and thus, the storage stability is highly excellent) | 598 nm | 726 nm | 128 | nose | +++ | +++
COc1ccc(N2c3ccc(/C=C/C4=[N+](CCC(=O)O)c5ccccc5C4(C)C)cc3C3CCCC32)cc1 (centres unmarked) [Dye 76] | +++ (rates of change of the absorbance and the fluorescence intensity are less than 5%, and thus, the storage stability is highly excellent) | 592 nm | 671 nm | 79 | gastrointestinal tract and lower abdomen | +++ | +++
O=C(O)CN1C(=O)/C(=C\c2ccc3c(c2)C2CCCC2N3c2ccc(C=C(c3ccccc3)c3ccccc3)cc2)SC1=S (centres unmarked) [Dye 88] | +++ (rates of change of the absorbance and the fluorescence intensity are less than 5%, and thus, the storage stability is highly excellent) | 535 nm | 655 nm | 120 | nose | +++ | +++
CCN1C(=O)/C(=c2/s/c(=C/c3ccc4c(c3)C3CCCC3N4c3ccc(C=C(c4ccccc4)c4ccccc4)cc3)c(=O)n2CC(=O)O)SC1=S (centres unmarked) [Dye 102] | +++ (rates of change of the absorbance and the fluorescence intensity are less than 5%, and thus, the storage stability is highly excellent) | 551 nm | 673 nm | 122 | gastrointestinal tract | +++ | +++
CCN1C(=O)/C(=c2\s/c(=C/c3ccc4c(c3)C3CCCC3N4c3ccc(C=C(c4ccccc4)c4ccccc4)cc3)c(=O)n2CC(=O)O)SC1=S (centres unmarked) [Dye 103] | +++ (rates of change of the absorbance and the fluorescence intensity are less than 5%, and thus, the storage stability is highly excellent) | 567 nm | 702 nm | 135 | gastrointestinal tract | +++ | +++
N#C/C(=C\c1ccc2c(c1)C1CCCC1N2c1ccccc1)C(=O)O (centres unmarked) [Dye 105] | +++ (rates of change of the absorbance and the fluorescence intensity are less than 5%, and thus, the storage stability is highly excellent) | 451 nm | 530 nm | 79 | liver and gastrointestinal tract | ++ | +++
N#C/C(=C\c1ccc2c(c1)C1CCCC1N2c1ccc(C=C(c2ccccc2)c2ccccc2)cc1)C(=O)O (centres unmarked) [Dye 108] | +++ (rates of change of the absorbance and the fluorescence intensity are less than 5%, and thus, the storage stability is highly excellent) | 479 nm | 600 nm | 121 | – | +++ | +++
CCN1c2ccc(/C=C3/SC(=S)N(CC(=O)O)C3=O)cc2C2CCCC21 (centres unmarked) [Dye 109] | +++ (rates of change of the absorbance and the fluorescence intensity are less than 5%, and thus, the storage stability is highly excellent) | 440 nm | 600 nm | 160 | liver and gastrointestinal tract | +++ | +++
